Laboratory results: patent US20210107874A1, “PHARMACEUTICAL FORMULATION OF CROTONYLAMINOPYRIDINE SALT” (priority 2017, published 2021)
Values after ≈ are worked out from the molar mass of the structure shown. Read-outs that look alike come from different tables or passages of the source. Values belong to the compound of their own block, whether it stands above or below them.

Legend:
Type in all cases: physicochemical
[1] = Solubility of synthesized tartrate salt and free base of compound 4; settings: free base; read-out: solubility
Protocol: The free base of compound 4 has a solubility of 0.8 mg/ml

[2] = Quantitative determination of solubility of compound 5 (UPLC); settings: 25 °C, aqueous buffer, thermodynamic from solid
Protocol: Compound 5 (120 mg) was weighed into shell vials and combined with acid (600 μl of a 350 mM solution of the respective acid in water).

[3] = Formulation with 10% compound 5: stability of clear solution; settings: 10% formulation (~100 mg/ml)
[4] = Visual solubility test of compound 5 in aqueous acid solution
Protocol: A visual solubility test (100 μL) at a series of target concentrations of 50, 100 or 200 mg/mL of compound 5 in aqueous acid solution was performed.
In a 96 well plate (400-600 μL), compound 5 was dispensed (5, 10, or 20 mg per well), acid was added (100 μl of a 350 mM solution in water to each well) and the mixtures were equilibrated at 25° C. with stirring. Solubility was checked by visual inspection after 30 min and after one day.

[5] = Acetic Acid 350 mM in water, 25° C.
[6] = Ethanesulfonic Acid 350 mM in water
[7] = Glucuronic Acid 350 mM in water
[8] = Glutamic Acid 350 mM in water, 25° C.
[9] = Methanesulfonic Acid 350 mM in water
[10] = Methanesulfonic Acid 350 mM in water, 25° C.
[11] = Nicotinic Acid 350 mM in water, 25° C.
[12] = Oxoglutaric Acid 350 mM in water
[13] = lsethionic Acid 350 mM in water
[14] = lsethionic Acid 350 mM in water, 25° C.

SMILES: CCOc1cc(NCCNC(=O)/C=C/C(F)(F)F)ccn1 [Compound 4, (E)-N-[2-[(2-ethoxy-4-pyridyl)amino]ethyl]-4,4,4-trifluoro-but-2-enamide]
solubility [1]: 0.8 mg/mL

solubility at 1 day ([2]; aqueous acid solution (350 mM citric acid in water), Citric acid 350 mM in water, read-out: Solubility T = 1 Day): 160 mg/mL (≈ 559 mM)
solubility at 1 day ([2]; aqueous acid solution (350 mM citric acid in water), Citric acid 350 mM in water, read-out: Solubility T = 1 Day Average): 149 mg/mL (≈ 523 mM)
solubility at 3 days ([2]; aqueous acid solution (350 mM citric acid in water), Citric acid 350 mM in water, read-out: Solubility T = 3 Days): 153 mg/mL (≈ 536 mM)
solubility at 3 days ([2]; aqueous acid solution (350 mM citric acid in water), Citric acid 350 mM in water, read-out: Solubility T = 3 Days Average): 151 mg/mL (≈ 529 mM)
solubility at 1 day ([2]; aqueous acid solution (350 mM ethanesulfonic acid in water), Ethanesulfonic acid 350 mM in water, read-out: Solubility T = 1 Day): 155 mg/mL (≈ 543 mM)
solubility at 1 day ([2]; aqueous acid solution (350 mM ethanesulfonic acid in water), Ethanesulfonic acid 350 mM in water, read-out: Solubility T = 1 Day Average): 145 mg/mL (≈ 507 mM)
solubility at 3 days ([2]; aqueous acid solution (350 mM ethanesulfonic acid in water), Ethanesulfonic acid 350 mM in water, read-out: Solubility T = 3 Days): 167 mg/mL (≈ 587 mM)
solubility at 3 days ([2]; aqueous acid solution (350 mM ethanesulfonic acid in water), Ethanesulfonic acid 350 mM in water, read-out: Solubility T = 3 Days Average): 165 mg/mL (≈ 578 mM)
solubility at 1 day ([2]; aqueous acid solution (350 mM fumaric acid in water), Fumaric acid 350 mM in water, read-out: Solubility T = 1 Day): 152 mg/mL (≈ 531 mM)
solubility at 1 day ([2]; aqueous acid solution (350 mM fumaric acid in water), Fumaric acid 350 mM in water, read-out: Solubility T = 1 Day Average): 149 mg/mL (≈ 522 mM)
solubility at 3 days ([2]; aqueous acid solution (350 mM fumaric acid in water), Fumaric acid 350 mM in water, read-out: Solubility T = 3 Days): 140 mg/mL (≈ 490 mM)
solubility at 3 days ([2]; aqueous acid solution (350 mM fumaric acid in water), Fumaric acid 350 mM in water, read-out: Solubility T = 3 Days Average): 153 mg/mL (≈ 535 mM)
solubility at 1 day ([2]; aqueous acid solution (350 mM malic acid in water), Malic acid 350 mM in water, read-out: Solubility T = 1 Day): 129 mg/mL (≈ 451 mM)
solubility at 1 day ([2]; aqueous acid solution (350 mM malic acid in water), Malic acid 350 mM in water, read-out: Solubility T = 1 Day Average): 122 mg/mL (≈ 427 mM)
solubility at 3 days ([2]; aqueous acid solution (350 mM malic acid in water), Malic acid 350 mM in water, read-out: Solubility T = 3 Days): 117 mg/mL (≈ 409 mM)
solubility at 3 days ([2]; aqueous acid solution (350 mM malic acid in water), Malic acid 350 mM in water, read-out: Solubility T = 3 Days Average): 116 mg/mL (≈ 408 mM)
solubility at 1 day ([2]; aqueous acid solution (350 mM oxalic acid in water), Oxalic acid 350 mM in water, read-out: Solubility T = 1 Day): 149 mg/mL (≈ 523 mM)
solubility at 1 day ([2]; aqueous acid solution (350 mM oxalic acid in water), Oxalic acid 350 mM in water, read-out: Solubility T = 1 Day Average): 142 mg/mL (≈ 498 mM)
solubility at 3 days ([2]; aqueous acid solution (350 mM oxalic acid in water), Oxalic acid 350 mM in water, read-out: Solubility T = 3 Days): 155 mg/mL (≈ 544 mM)
solubility at 3 days ([2]; aqueous acid solution (350 mM oxalic acid in water), Oxalic acid 350 mM in water, read-out: Solubility T = 3 Days Average): 155 mg/mL (≈ 544 mM)
solubility at 1 day ([2]; aqueous acid solution (350 mM oxoglutaric acid in water), Oxoglutaric acid 350 mM in water, read-out: Solubility T = 1 Day): 128 mg/mL (≈ 447 mM)
solubility at 1 day ([2]; aqueous acid solution (350 mM oxoglutaric acid in water), Oxoglutaric acid 350 mM in water, read-out: Solubility T = 1 Day Average): 129 mg/mL (≈ 453 mM)
solubility at 3 days ([2]; aqueous acid solution (350 mM oxoglutaric acid in water), Oxoglutaric acid 350 mM in water, read-out: Solubility T = 3 Days): 135 mg/mL (≈ 472 mM)
solubility at 3 days ([2]; aqueous acid solution (350 mM oxoglutaric acid in water), Oxoglutaric acid 350 mM in water, read-out: Solubility T = 3 Days Average): 134 mg/mL (≈ 468 mM)
solubility at 1 day ([2]; aqueous acid solution (350 mM tartaric acid in water), Tartaric acid 350 mM in water, read-out: Solubility T = 1 Day): 117 mg/mL (≈ 410 mM)
solubility at 1 day ([2]; aqueous acid solution (350 mM tartaric acid in water), Tartaric acid 350 mM in water, read-out: Solubility T = 1 Day Average): 137 mg/mL (≈ 481 mM)
solubility at 3 days ([2]; aqueous acid solution (350 mM tartaric acid in water), Tartaric acid 350 mM in water, read-out: Solubility T = 3 Days): 162 mg/mL (≈ 567 mM)
solubility at 3 days ([2]; aqueous acid solution (350 mM tartaric acid in water), Tartaric acid 350 mM in water, read-out: Solubility T = 3 Days Average): 163 mg/mL (≈ 571 mM)
stability (remains clear solution) ([3]; pH of 4.4, equimolar Citric acid): 3 months
stability (remains clear solution) ([3]; pH of 4.4, equimolar Malic acid): 3 months
stability (remains clear solution) ([3]; pH of 4.4, equimolar Tartaric acid): 3 months
pH for 50 mg/mL ([4]; Acetic Acid 350 mM in water): 5.09
pH for 100 mg/mL ([4]; Acetic Acid 350 mM in water): 5.02
pH for 200 mg/mL ([4]; Acetic Acid 350 mM in water): 5.06
Range at 1 Day [4, 5]: <58 mg/mL
Range at 30 mins. [4, 5]: <58 mg/mL
pH for 50 mg/mL ([4]; Benzoic Acid 350 mM in water): 4.94
pH for 100 mg/mL ([4]; Benzoic Acid 350 mM in water): 5.23
pH for 200 mg/mL ([4]; Benzoic Acid 350 mM in water): 5.20
pH for 50 mg/mL ([4]; Citric Acid 350 mM in water): 3.36
pH for 100 mg/mL ([4]; Citric Acid 350 mM in water): 4.06
pH for 200 mg/mL ([4]; Citric Acid 350 mM in water): 4.84
pH for 50 mg/mL [4, 6]: 0.96
pH for 100 mg/mL [4, 6]: 1.17
pH for 200 mg/mL [4, 6]: 4.99
pH for 50 mg/mL ([4]; Fumaric Acid 350 mM in water): 3.59
pH for 100 mg/mL ([4]; Fumaric Acid 350 mM in water): 3.89
pH for 200 mg/mL ([4]; Fumaric Acid 350 mM in water): 4.86
pH for 50 mg/mL [4, 7]: 3.60
pH for 100 mg/mL [4, 7]: 4.86
pH for 200 mg/mL [4, 7]: 4.80
pH for 50 mg/mL ([4]; Glutamic Acid 350 mM in water): 5.11
pH for 100 mg/mL ([4]; Glutamic Acid 350 mM in water): 5.05
pH for 200 mg/mL ([4]; Glutamic Acid 350 mM in water): 5.14
Range at 1 Day [4, 8]: <53 mg/mL
Range at 30 mins. [4, 8]: <53 mg/mL
pH for 50 mg/mL ([4]; Lactic Acid 350 mM in water): 4.50
pH for 100 mg/mL ([4]; Lactic Acid 350 mM in water): 4.88
pH for 200 mg/mL ([4]; Lactic Acid 350 mM in water): 4.94
pH for 50 mg/mL ([4]; Malic Acid 350 mM in water): 3.68
pH for 100 mg/mL ([4]; Malic Acid 350 mM in water): 4.45
pH for 200 mg/mL ([4]; Malic Acid 350 mM in water): 4.78
pH for 50 mg/mL [4, 9]: 7.60
pH for 100 mg/mL [4, 9]: 7.61
pH for 200 mg/mL [4, 9]: 7.31
Range at 1 Day [4, 10]: <52 mg/mL
Range at 30 mins. [4, 10]: <52 mg/mL
pH for 50 mg/mL ([4]; Nicotinic Acid 350 mM in water): 5,25
pH for 100 mg/mL ([4]; Nicotinic Acid 350 mM in water): 5.15
pH for 200 mg/mL ([4]; Nicotinic Acid 350 mM in water): 5.16
Range at 1 Day [4, 11]: <74 mg/mL
Range at 30 mins. [4, 11]: <74 mg/mL
pH for 50 mg/mL ([4]; Oxalic Acid 350 mM in water): 1.81
pH for 100 mg/mL ([4]; Oxalic Acid 350 mM in water): 3.27
pH for 200 mg/mL ([4]; Oxalic Acid 350 mM in water): 4.81
pH for 50 mg/mL [4, 12]: 2.66
pH for 100 mg/mL [4, 12]: 4.17
pH for 200 mg/mL [4, 12]: 4.89
pH for 50 mg/mL ([4]; Succinic Acid 350 mM in water): 4.57
pH for 100 mg/mL ([4]; Succinic Acid 350 mM in water): 5.01
pH for 200 mg/mL ([4]; Succinic Acid 350 mM in water): 4.99
pH for 50 mg/mL ([4]; Tartaric Acid 350 mM in water): 2.92
pH for 100 mg/mL ([4]; Tartaric Acid 350 mM in water): 3.71
pH for 200 mg/mL ([4]; Tartaric Acid 350 mM in water): 4.70
solubility at 30 min ([4]; aqueous acid solution, aqueous buffer, thermodynamic from solid, Benzoic Acid 350 mM in water, 25° C., read-out: Range at 30 mins.): < 49 mg/mL
pH for 50 mg/mL [4, 13]: 7.83
pH for 100 mg/mL [4, 13]: 7.85
pH for 200 mg/mL [4, 13]: 7.93
Range at 1 Day [4, 14]: <52 mg/mL
Range at 30 mins. [4, 14]: <52 mg/mL
solubility (in words) ([4]; with nicotinic acid, methanesulfonic acid, isethionic acid, benzoic acid, acetic acid and glutamic acid): poor solubility
solubility (in words) ([4]; with tartaric acid, fumaric acid, citric acid, malic acid, oxalic acid, oxoglutaric acid and ethanesulfonic acid): good solubility
SMILES: COc1cc(NCCNC(=O)/C=C/C(C)(F)F)ccn1 [Compound 5]
